Source: US10111437B2, “Substituted guanidines as fungicides” (Nippon Soda Co., Ltd., priority 2015, dated 2018)
Where a name gives a salt, the structure may show the parent alone.

Columns and labels:
[1] = system: wheat leaf rust fungus (Puccinia recondita); assay: Wheat leaf rust control test (foliar spray on wheat seedlings); type: in vivo; conditions: 240 h, 125 ppm active ingredient, sprayed on wheat seedlings (variety Norin 61) before inoculation, 10 days, vs untreated
[2] = system: Tomato late blight fungus (Phytophthora infestans); assay: whole plant or invertebrate; type: in vivo; conditions: foliar, 96 h, read-out: control value
[3] = system: cucumber gray mold fungus (Botrytis cinerea); assay: Cucumber gray mold control test (foliar spray on cucumber seedlings); conditions: in Cucumis sativus, 96 h, read-out: control value
[4] = system: Apple scab fungus (Venturia inaequalis); assay: Apple scab control test (foliar spray on apple seedlings); type: in vivo; conditions: 125 ppm active ingredient, sprayed on apple seedlings (variety Orin) before inoculation, vs untreated
Procedure: The dilution was sprayed to apple seedlings (variety “Orin”, 3 to 4 leaf stage) grown in clay pots. […] The control value was calculated by the following equation. [formula]

N/C(=N\O)c1ccc(OCCCn2ccn(CCCOc3ccc(/C(N)=N/O)cc3)c2=NC(=O)C(F)(F)F)cc1 [compound 55, N-[1,3-bis[3-[4-[N′-hydroxycarbamimidoyl]phenoxy]propyl]-1,3-dihydro-2H-imidazol-2-ylidene]-2,2,2-trifluoroacetamide]
melting point: 187 to 201 °C

N=C(NCC/C=C/c1ccc(C(=N)N)cc1)NCC/C=C/c1ccc(C(=N)N)cc1 (as salt: hydrochloride) [compound 151]
melting point: 179 to 181 °C

Cc1cn(CCCOc2ccc(C(=N)N)cc2)c(=N)n1CCCOc1ccc(C(=N)N)cc1 (as salt: hydrochloride) [compound 114]
melting point: 182 to 186 °C

N=C(N)c1ccc(OCCCn2ccn(CCCOc3ccc(C(=N)N)cc3Cl)c2=N)c(Cl)c1 (as salt: hydrochloride) [compound 99]
melting point: 184 to 190 °C

CN=C(NCCCOc1ccc(C(=N)N)cc1)NCCCOc1ccc(C(=N)N)cc1 [compound 57, 4-[3-[[N-[3-(4-carbamimidoylphenoxy)propyl]-N′-methyl-carbamimidoyl]amino]propoxy]benzamidine]
pest or weed control at 125 ppm [1]: ≥ 75%
pest or weed control at 125 ppm [2]: ≥ 75%
pest or weed control at 125 ppm [3]: ≥ 75%
pest or weed control at 125 ppm [4]: ≥ 75%

N=C(N)NCCCCCCCCNC(=N)NCCCCOc1ccc(C2=NCCN2)cc1 [compound 246]
pest or weed control at 125 ppm [1]: ≥ 75%
pest or weed control at 125 ppm [2]: ≥ 75%
pest or weed control at 125 ppm [3]: ≥ 75%
pest or weed control at 125 ppm [4]: ≥ 75%

N=C(N)NCCCCCCCCCNC(=N)NCCOc1ccc(C(=N)N)cc1 [compound 234]
pest or weed control at 125 ppm [1]: ≥ 75%
pest or weed control at 125 ppm [2]: ≥ 75%
pest or weed control at 125 ppm [3]: ≥ 75%
pest or weed control at 125 ppm [4]: ≥ 75%

CC1(C)CNC(c2ccc(OCCCCNC(=N)NCCCCCCCCNC(=N)N)cc2)=N1 [compound 256]
pest or weed control at 125 ppm [1]: ≥ 75%
pest or weed control at 125 ppm [2]: ≥ 75%
pest or weed control at 125 ppm [3]: ≥ 75%
pest or weed control at 125 ppm [4]: ≥ 75%

N=C(N)c1ccc(OCCCn2ccn(CCCc3cc4cc(C(=N)N)ccc4o3)c2=N)cc1 [compound 126]
pest or weed control at 125 ppm [1]: ≥ 75%
pest or weed control at 125 ppm [2]: ≥ 75%
pest or weed control at 125 ppm [3]: ≥ 75%
pest or weed control at 125 ppm [4]: ≥ 75%

N=C(NCCCCOc1ccc(C(=N)N)cc1)NCCCCOc1ccc(C(=N)N)cc1 [compound 10, 4-[4-[[N-[4-(4-carbamimidoylphenoxy)butyl]carbamimidoyl]amino]butoxy]benzamidine]
pest or weed control at 125 ppm [1]: ≥ 75%
pest or weed control at 125 ppm [2]: ≥ 75%
pest or weed control at 125 ppm [3]: ≥ 75%
pest or weed control at 125 ppm [4]: ≥ 75%

N=C(N)NCCCCCCCCNC(=N)NCCCCOc1ccc(C2=NCCCCN2)cc1 [compound 254]
pest or weed control at 125 ppm [1]: ≥ 75%
pest or weed control at 125 ppm [2]: ≥ 75%
pest or weed control at 125 ppm [3]: ≥ 75%
pest or weed control at 125 ppm [4]: ≥ 75%

N=C(NCCCC#Cc1ccc(C(=N)N)cc1)NCCCC#Cc1ccc(C(=N)N)cc1 [compound 22, 4-[5-[[N-[5-(4-carbamimidoylphenyl)pent-4-ynyl]carbamimidoyl]amino]pent-1-ynyl]benzamidine]
pest or weed control at 125 ppm [1]: ≥ 75%
pest or weed control at 125 ppm [2]: ≥ 75%
pest or weed control at 125 ppm [3]: ≥ 75%
pest or weed control at 125 ppm [4]: ≥ 75%

Cc1cn(CCCOc2ccc(C(=N)N)cc2)c(=N)n1CCCOc1ccc(C(=N)N)cc1 [compound 114]
pest or weed control at 125 ppm [1]: ≥ 75%
pest or weed control at 125 ppm [2]: ≥ 75%
pest or weed control at 125 ppm [3]: ≥ 75%
pest or weed control at 125 ppm [4]: ≥ 75%

N=C(N)NCCCCCCCCNC(=N)NCCCOCc1ccc(C2=NCCCN2)cc1 [compound 222]
pest or weed control at 125 ppm [1]: ≥ 75%
pest or weed control at 125 ppm [2]: ≥ 75%
pest or weed control at 125 ppm [3]: ≥ 75%
pest or weed control at 125 ppm [4]: ≥ 75%

N=C(NCCCCCCCCNC1=NCCN1)NCCCOc1ccc(C(=N)N)cc1 [compound 298]
pest or weed control at 125 ppm [1]: ≥ 75%
pest or weed control at 125 ppm [2]: ≥ 75%
pest or weed control at 125 ppm [3]: ≥ 75%
pest or weed control at 125 ppm [4]: ≥ 75%

N=C(N)NCCCCCCCCNC(=N)NCCCCOc1ccc(C2=NCCCN2)cn1 [compound 275]
pest or weed control at 125 ppm [1]: ≥ 75%
pest or weed control at 125 ppm [2]: ≥ 75%
pest or weed control at 125 ppm [3]: ≥ 75%
pest or weed control at 125 ppm [4]: ≥ 75%

N=C(N)NCCCCCCCCNC(=N)NCCCCOc1ccc(C(=N)N)cn1 [compound 61, 6-[4-[[N-(8-guanidinooctyl)carbamimidoyl]amino]butoxy]pyridine-3-carboxamidine]
pest or weed control at 125 ppm [1]: ≥ 75%
pest or weed control at 125 ppm [2]: ≥ 75%
pest or weed control at 125 ppm [3]: ≥ 75%
pest or weed control at 125 ppm [4]: ≥ 75%

N=C(N)NCCCCCCCCNC(=N)NCCCOc1ccc(C(=N)N)cc1Cl [compound 112]
pest or weed control at 125 ppm [1]: ≥ 75%
pest or weed control at 125 ppm [2]: ≥ 75%
pest or weed control at 125 ppm [3]: ≥ 75%
pest or weed control at 125 ppm [4]: ≥ 75%

N=C(N)NCCCCCCCCNC(=N)NCCCOCc1ccc(C(=N)N)cc1 [compound 145]
pest or weed control at 125 ppm [1]: ≥ 75%
pest or weed control at 125 ppm [2]: ≥ 75%
pest or weed control at 125 ppm [3]: ≥ 75%
pest or weed control at 125 ppm [4]: ≥ 75%

N=C(N)NCCCCCCCCn1ccn(CCOc2ccc(C3=NCC(N)CN3)cc2)c1=N (stereo not shown) [compound 302]
pest or weed control at 125 ppm [1]: ≥ 75%
pest or weed control at 125 ppm [2]: ≥ 75%
pest or weed control at 125 ppm [3]: ≥ 75%
pest or weed control at 125 ppm [4]: ≥ 75%

N=C(N)NCCCCCCCNC(=N)NCCCOCc1ccc(C(=N)N)cc1 [compound 179]
pest or weed control at 125 ppm [1]: ≥ 75%
pest or weed control at 125 ppm [2]: ≥ 75%
pest or weed control at 125 ppm [3]: ≥ 75%
pest or weed control at 125 ppm [4]: ≥ 75%

N=C(NCCCCOc1ccc(C(=N)N)cc1)NCCCCOc1ccc(C(=N)N)cn1 [compound 194]
pest or weed control at 125 ppm [1]: ≥ 75%
pest or weed control at 125 ppm [2]: ≥ 75%
pest or weed control at 125 ppm [3]: ≥ 75%
pest or weed control at 125 ppm [4]: ≥ 75%

N=C(N)NCCCCCCCN1CCN(CCCCCCCNC(=N)N)C1=N [compound 8, 1-[7-[3-(7-guanidinoheptyl)-2-imino-imidazolidin-1-yl]heptyl]guanidine]
pest or weed control at 125 ppm [1]: ≥ 75%
pest or weed control at 125 ppm [2]: ≥ 75%
pest or weed control at 125 ppm [3]: ≥ 75%
pest or weed control at 125 ppm [4]: ≥ 75%

N=C(N)NCCCCCCCCNC(=N)NCCOCc1ccc(C2=NCCCN2)cc1 [compound 220]
pest or weed control at 125 ppm [1]: ≥ 75%
pest or weed control at 125 ppm [2]: ≥ 75%
pest or weed control at 125 ppm [3]: ≥ 75%
pest or weed control at 125 ppm [4]: ≥ 75%

N=C(N)NCCCCCCCCNC(=N)NCC#Cc1ccc(C(=N)N)cc1 [compound 165]
pest or weed control at 125 ppm [1]: ≥ 75%
pest or weed control at 125 ppm [2]: ≥ 75%
pest or weed control at 125 ppm [3]: ≥ 75%
pest or weed control at 125 ppm [4]: ≥ 75%

N=C(N)NCCCCCCCCNC(=N)NCCCOc1ccc(C2=NCCCN2)cc1 [compound 192]
pest or weed control at 125 ppm [1]: ≥ 75%
pest or weed control at 125 ppm [2]: ≥ 75%
pest or weed control at 125 ppm [3]: ≥ 75%
pest or weed control at 125 ppm [4]: ≥ 75%

N=C(N)NCCCCCCCNC(=N)NCCCc1cc2cc(C(=N)N)ccc2o1 [compound 34, 2-(3-(3-(7-guanidinoheptyl)guanidino)propyl)benzofuran-5-carboximidamide]
pest or weed control at 125 ppm [1]: ≥ 75%
pest or weed control at 125 ppm [2]: ≥ 75%
pest or weed control at 125 ppm [3]: ≥ 75%
pest or weed control at 125 ppm [4]: ≥ 75%

N=C(N)NCCCCCCCCn1ccn(CCCOc2ccc(C3=NCCCN3)cc2)c1=N [compound 184]
pest or weed control at 125 ppm [1]: ≥ 75%
pest or weed control at 125 ppm [2]: ≥ 75%
pest or weed control at 125 ppm [3]: ≥ 75%
pest or weed control at 125 ppm [4]: ≥ 75%
